Target: T1, wild-type FLT3 phosphorylation in Baf3 FLT3 cells (Homo sapiens, UniProt P36888)
T1 sequence (P36888 27-993): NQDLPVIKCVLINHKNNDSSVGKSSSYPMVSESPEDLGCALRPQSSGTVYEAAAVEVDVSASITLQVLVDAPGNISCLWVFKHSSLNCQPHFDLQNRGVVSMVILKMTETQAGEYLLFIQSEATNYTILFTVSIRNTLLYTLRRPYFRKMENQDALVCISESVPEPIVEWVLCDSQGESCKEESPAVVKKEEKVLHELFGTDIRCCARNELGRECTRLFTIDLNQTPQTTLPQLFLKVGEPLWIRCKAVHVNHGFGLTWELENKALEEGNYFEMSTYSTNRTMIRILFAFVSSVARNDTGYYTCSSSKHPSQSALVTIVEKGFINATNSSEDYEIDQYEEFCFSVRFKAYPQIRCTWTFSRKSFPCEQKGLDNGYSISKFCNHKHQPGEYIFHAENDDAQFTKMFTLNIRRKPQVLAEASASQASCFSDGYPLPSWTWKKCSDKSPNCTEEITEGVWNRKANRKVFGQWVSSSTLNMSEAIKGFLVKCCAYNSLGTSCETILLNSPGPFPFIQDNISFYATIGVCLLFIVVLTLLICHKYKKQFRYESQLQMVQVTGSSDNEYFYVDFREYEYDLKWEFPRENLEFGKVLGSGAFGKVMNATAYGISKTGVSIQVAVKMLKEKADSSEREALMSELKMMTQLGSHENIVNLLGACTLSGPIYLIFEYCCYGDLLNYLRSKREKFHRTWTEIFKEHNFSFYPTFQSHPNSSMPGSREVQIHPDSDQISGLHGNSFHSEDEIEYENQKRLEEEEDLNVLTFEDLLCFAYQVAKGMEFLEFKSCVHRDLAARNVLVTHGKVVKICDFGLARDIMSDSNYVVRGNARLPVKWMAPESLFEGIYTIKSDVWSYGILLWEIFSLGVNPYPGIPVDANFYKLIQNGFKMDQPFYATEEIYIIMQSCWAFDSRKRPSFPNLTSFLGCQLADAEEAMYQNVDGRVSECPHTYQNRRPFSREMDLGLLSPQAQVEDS
Assay: Cell-Based FLT3 Receptor Elisa
Details: 1 hour compound, 100 ng/mL Flt ligand 10 min; uncertainty ±20%
Method: Cell-Based FLT3 Receptor Elisa
Specific cellular inhibition of FLT ligand-induced wild-type FLT3 phosphorylation was measured in the following manner: Baf3 FLT3 cells overexpressing the FLT3 receptor were obtained from Dr. Michael Heinrich (Oregon Health and Sciences University). The Baf3 FLT3 cell lines were created by stable transfection of parental Baf3 cells (a murine B cell lymphoma line dependent on the cytokine IL-3 for growth) with wild-type FLT3. Cells were selected for their ability to grow in the absence of IL-3 and in the presence of FLT3 ligand.
Baf3 cells were maintained in RPMI 1640 with 10% FBS, penn/strep and 10 ng/ml FLT ligand at 37° C., 5% CO2. To measure direct inhibition of the wild-type FLT3 receptor activity and phosphorylation a sandwich ELISA method was developed similar to those developed for other RTKs (see Sadick, M D, Sliwkowski, M X, Nuijens, A, Bald, L, Chiang, N, Lofgren, J A, Wong W L T. Analysis of Heregulin-Induced ErbB2 Phosphorylation with a High-Throughput Kinase Receptor Activation Enzyme-Linked Immunsorbent Assay, Analytical Biochemistry. 1996; 235:207-214 and Baumann C A, Zeng L, Donatelli R R, Maroney A C. Development of a quantitative, high-throughput cell-based enzyme-linked immunosorbent assay for detection of colony-stimulating factor-1 receptor tyrosine kinase inhibitors. J Biochem Biophys Methods. 2004; 60:69-79.). 200 μL of Baf3FLT3 cells (1×10^6/mL) were plated in 96 well dishes in RPMI 1640 with 0.5% serum and 0.01 ng/mL IL-3 for 16 hours prior to 1 hour compound or DMSO vehicle incubation. Cells were treated with 100 ng/mL Flt ligand (R&D Systems Cat# 308-FK) for 10 min. at 37° C. Cells were pelleted, washed and lysed in 100 ul lysis buffer (50 mM Hepes, 150 mM NaCl, 10% Glycerol, 1% Triton-X-100, 10 mM NaF, 1 mM EDTA, 1.5 mM MgCl2, 10 mM NaPyrophosphate) supplemented with phosphatase (Sigma Cat# P2850) and protease inhibitors (Sigma Cat #P8340). Lysates were cleared by centrifugation at 1000×g for 5 minutes at 4° C. Cell lysates were transferred to white wall 96 well microtiter (Costar #9018) plates coated with 50 ng/well anti-FLT3 antibody (Santa Cruz Cat# sc-480) and blocked with SeaBlock reagent (Pierce Cat#37527). Lysates were incubated at 4° C. for 2 hours. Plates were washed 3× with 200 ul/well PBS/0.1% Triton-X-100. Plates were then incubated with 1:8000 dilution of HRP-conjugated anti-phosphotyrosine antibody (Clone 4G10, Upstate Biotechnology Cat#16-105) for 1 hour at room temperature. Plates were washed 3× with 200 ul/well PBS/0.1% Triton-X-100. Signal detection with Super Signal Pico reagent (Pierce Cat#37070) was done according to manufacturer's instruction with a Berthold microplate luminometer. All data points are an average of triplicate samples. […] Inhibition and IC50 data analysis was done with GraphPad Prism using a non-linear regression fit with a multiparamater, sigmoidal dose-response (variable slope) equation.

| IC50 [nM] | SMILES |
| --- | --- |
| 2300 | CCNC(=O)NCCO/N=C/c1c(N)ncnc1N1CCC(NC(=O)Nc2ccc(C(C)C)cc2)C1 (centres unmarked) [Number 28, 1-[1-(6-Amino-5-{[2-(3-ethyl-ureido)-ethoxyimino]-methyl}-pyrimidin-4-yl)-pyrrolidin-3-yl]-3-(4-isopropyl-phenyl)-urea] |
| 2400 | CC(C)c1ccc(NC(=O)NC2CCN(c3ncnc(N)c3/C=N/OCC(=O)N3CCOCC3)C2)cc1 (centres unmarked) [Number 29, 1-(1-{6-Amino-5-[(2-morpholin-4-yl-2-oxo-ethoxyimino)-methyl]-pyrimidin-4-yl}-pyrrolidin-3-yl)-3-(4-isopropyl-phenyl)-urea] |

From US20060281700A1, “SYNERGISTIC MODULATION OF FLT3 KINASE USING AMINOPYRIMIDINES KINASE MODULATORS” (priority 2005, published 2006)
